Test results reported in PMC8009520, “Exploration of TRPM8 Binding Sites by β-Carboline-Based Antagonists and Their In Vitro Characterization and In Vivo Analgesic Activities” (Journal of Medicinal Chemistry, 2020).
Where two headings read alike, the source gives them in different places.

Target: T1, rat isoform of TRPM8 channels (Rattus norvegicus, UniProt Q8R455)
T1 construct: expressed in transfected cells
Assay: Ca2+ fluorimetric assay, menthol-activated channel
Type: cell-based
Procedure: TRPM8 blocker activity of all synthesized compounds was tested by Ca^2+ fluorimetric assays using HEK-293 cells stably expressing the rat isoform of TRPM8 channels, using menthol and AMTB as prototypical agonist and antagonist, respectively.
For measurement of the potency of the compounds, fluorimetric experiments were performed using HEK-293 cells (CRL-1573TM, American Type Culture Collection, LGC Promochem, Molsheim, France) that stably express rat TRPM8. The cells were seeded in 96-well plates (Corning Incorporated, Corning, NY) at a cell density of 40 000 cells 2 days before treatment. On the day of treatment, the medium was replaced with 100 μL of the dye loading solution Fluo-4 NW supplemented with probenecid 2.5 mM.
The tested molecules dissolved in DMSO were added at the desired concentrations, and the plates were incubated in darkness at 37 °C in a humidified atmosphere of 5% CO2 for 60 min. The fluorescence was measured using instrument settings appropriate for excitation at 485 nm and emission at 535 nm (POLARstar Omega BMG LABtech). A baseline recording of four cycles was recorded prior to stimulation with the agonist (100 μM menthol for TRPM8). The TRPM8 antagonist, 10 μM AMTB, was added to the medium containing the corresponding agonist to induce channel blockade. The changes in fluorescence intensity were recorded during 15 cycles more. The higher concentration of DMSO used in the experiment was added to the control wells. The cells’ fluorescence was measured before and after the addition of various concentrations of test compounds. The fluorescence values obtained are normalized to that prompted by the corresponding agonist (for channel activating compounds) or upon agonist and antagonist coexposure (for channel blocker compounds).

[1] = HEK-293 cells stably expressing rat TRPM8, menthol as agonist, mean ± SD of at least three measurements, read-out: IC50
[2] = supplementary xlsx, read-out: rTRPM8 IC50 (calcium microfluorimetric assays)

T1 sequence (Q8R455 whole entry, canonical isoform): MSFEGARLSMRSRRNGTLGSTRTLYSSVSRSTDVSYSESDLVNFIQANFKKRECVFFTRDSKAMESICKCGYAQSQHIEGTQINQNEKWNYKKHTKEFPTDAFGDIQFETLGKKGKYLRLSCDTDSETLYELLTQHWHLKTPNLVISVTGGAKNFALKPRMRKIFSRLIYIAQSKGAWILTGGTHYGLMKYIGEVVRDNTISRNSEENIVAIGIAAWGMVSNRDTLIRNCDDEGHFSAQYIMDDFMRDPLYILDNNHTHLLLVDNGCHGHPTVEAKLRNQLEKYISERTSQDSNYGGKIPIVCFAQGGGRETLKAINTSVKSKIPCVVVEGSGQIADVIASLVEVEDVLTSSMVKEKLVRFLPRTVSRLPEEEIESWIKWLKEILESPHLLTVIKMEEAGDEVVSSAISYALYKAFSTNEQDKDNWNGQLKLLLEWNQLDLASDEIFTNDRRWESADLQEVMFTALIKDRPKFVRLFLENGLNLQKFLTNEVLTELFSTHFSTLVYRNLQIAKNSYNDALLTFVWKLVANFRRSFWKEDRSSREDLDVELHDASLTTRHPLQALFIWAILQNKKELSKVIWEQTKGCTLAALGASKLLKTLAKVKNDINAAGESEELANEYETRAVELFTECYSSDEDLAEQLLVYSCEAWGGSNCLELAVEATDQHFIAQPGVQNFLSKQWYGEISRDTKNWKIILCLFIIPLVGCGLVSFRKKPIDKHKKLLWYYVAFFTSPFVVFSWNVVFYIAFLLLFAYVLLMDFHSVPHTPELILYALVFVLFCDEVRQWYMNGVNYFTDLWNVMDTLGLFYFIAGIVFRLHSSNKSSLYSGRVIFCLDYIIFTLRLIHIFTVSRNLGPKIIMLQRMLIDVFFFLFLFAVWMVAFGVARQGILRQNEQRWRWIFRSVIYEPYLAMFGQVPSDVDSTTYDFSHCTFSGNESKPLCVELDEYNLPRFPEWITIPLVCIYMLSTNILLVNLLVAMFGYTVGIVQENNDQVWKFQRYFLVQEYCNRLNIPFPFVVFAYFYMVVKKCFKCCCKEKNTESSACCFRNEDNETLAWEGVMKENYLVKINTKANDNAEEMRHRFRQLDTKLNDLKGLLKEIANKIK

Compound | IC50 [1] [µM] | IC50 [2] [µM] | rTRPM8 IC50 (calcium microfluorimetric assays) (supplementary xlsx) [µM]
COC(=O)[C@@H]1Cc2c([nH]c3ccccc23)[C@H](c2ccccc2)N1Cc1ccccc1 [6b, (1S,3S)-Methyl 2-Benzyl-1-phenyl-2,3,4,9-tetrahydro-1H-pyrido[3,4-b]indole-3-carboxylate] | 1.6 ± 0.9 | 1.4 ± 1.3 | –
CC(C)C[C@H]1N[C@H](C(=O)NCc2ccc(F)cc2)Cc2c1[nH]c1ccccc21 [10a, (1R,3S)-N-(4-Fluorobenzyl)-1-isobutyl-2,3,4,9-tetrahydro-1H-pyrido[3,4-b]indole-3-carboxamide] | 4.6 ± 1.3 | – | –
CC(C)C[C@@H]1N[C@H](C(=O)NCc2ccc(F)cc2)Cc2c1[nH]c1ccccc21 [10b, (1S,3S)-N-(4-Fluorobenzyl)-1-isobutyl-2,3,4,9-tetrahydro-1H-pyrido[3,4-b]indole-3-carboxamide] | 6.2 ± 1.2 | – | –
COC(=O)CC[C@@H]1N[C@H](C(=O)NCc2ccc(F)cc2)Cc2c1[nH]c1ccccc21 [11b, Methyl 3-((1S,3S)-3-((4-Fluorobenzyl)carbamoyl)-2,3,4,9-tetrahydro-1H-pyrido[3,4-b]indol-1-yl)propanoate] | 3 ± 1.2 | – | –
O=C(O)CC[C@@H]1N[C@H](C(=O)NCc2ccc(F)cc2)Cc2c1[nH]c1ccccc21 [12b, 3-((1S,3S)-3-((4-Fluorobenzyl)carbamoyl)-2,3,4,9-tetrahydro-1H-pyrido[3,4-b]indol-1-yl)propanoic Acid] | 22 ± 1.4 | – | –
CC(C)C[C@@H]1c2[nH]c3ccccc3c2C[C@H]2C(=O)N[C@@H](Cc3ccccc3)C(=O)N12 [25a, (3S,6R,12aS)-3-Benzyl-6-isobutyl-2,3,12,12a-tetrahydropyrazino[1′,2′:1,6]pyrido[3,4-b]indole-1,4(6H,7H)-dione] | 4.1 ± 1.1 | – | –
CC(C)C[C@H]1c2[nH]c3ccccc3c2C[C@H]2C(=O)N[C@@H](Cc3ccccc3)C(=O)N21 [25b, (3S,6S,12aS)-3-Benzyl-6-isobutyl-2,3,12,12a-tetrahydropyrazino[1′,2′:1,6]pyrido[3,4-b]indole-1,4(6H,7H)-dione] | 1.3 ± 0.6 | 0.9 ± 1.2 | –
O=C1NCC(=O)N2[C@H](c3ccc(Cl)cc3)c3[nH]c4ccccc4c3C[C@@H]12 [27a, (6R,12aS)-6-(4-Chlorophenyl)-2,3,12,12a-tetrahydropyrazino[1′,2′:1,6]pyrido[3,4-b]indole-1,4(6H,7H)-dione] | 1.5 ± 1.1 | – | –
O=C1NCC(=O)N2[C@@H](c3ccc(Cl)cc3)c3[nH]c4ccccc4c3C[C@@H]12 [27b, (6S,12aS)-6-(4-Chlorophenyl)-2,3,12,12a-tetrahydropyrazino[1′,2′:1,6]pyrido[3,4-b]indole-1,4(6H,7H)-dione] | 1.7 ± 0.8 | 1.2 ± 1.7 | –
COc1ccc(CN2C(=O)[C@@H]3Cc4c([nH]c5ccccc45)[C@@H](CC(C)C)N3C2=O)cc1 [29a, (5R,11aS)-5-Isobutyl-2-(4-methoxybenzyl)-5,6,11,11a-tetrahydro-1H-imidazo[1′,5′:1,6]pyrido[3,4-b]indole-1,3(2H)-dione] | 2.8 ± 1.2 | – | 22.9 ± 1.4
COc1ccc(CN2C(=O)[C@H]3Cc4c([nH]c5ccccc45)[C@H](CC(C)C)N3C2=O)cc1 [29a′, (5S,11aR)-5-Isobutyl-2-(4-methoxybenzyl)-5,6,11,11a-tetrahydro-1H-imidazo[1′,5′:1,6]pyrido[3,4-b]indole-1,3(2H)-dione] | 22.9 ± 1.4 | – | –
Cc1ccc(CN2C(=O)[C@@H]3Cc4c([nH]c5ccccc45)[C@@H](c4ccc(Cl)cc4)N3C2=O)cc1 [30a, (5R,11aS)-5-(4-Chlorophenyl)-2-(4-methylbenzyl)-5,6,11,11a-tetrahydro-1H-imidazo[1′,5′:1,6]pyrido[3,4-b]indole-1,3(2H)-dione] | 0.8 ± 0.4 | – | 2.3 ± 0.8
Cc1ccc(CN2C(=O)[C@H]3Cc4c([nH]c5ccccc45)[C@H](c4ccc(Cl)cc4)N3C2=O)cc1 [30a′, (5S,11aR)-5-(4-Chlorophenyl)-2-(4-methylbenzyl)-5,6,11,11a-tetrahydro-1H-imidazo[1′,5′:1,6]pyrido[3,4-b]indole-1,3(2H)-dione] | 2.3 ± 0.8 | – | –
